Our source for the IC50 values is patent US11339171B2, “MDM2 inhibitors” (Gan & Lee Pharmaceuticals, priority 2017, dated 2022).

Experiment [1] relates to human osteosarcoma cell line SJSA-1. Put plainly: Inhibition of proliferation of human osteosarcoma cell line SJSA-1 (DAPI staining, In Cell Analyzer). As to conditions: Homo sapiens, SJSA-1, 72 h, read-out: IC50 (nM), inhibitory activity on proliferation of human osteosarcoma cell line SJSA-1, SJSA-1, incubated 72 h.
In a further experiment the target is T1, MDM2 (Homo sapiens, UniProt Q00987).
T1 construct: made in house
The experiment is described as follows: Inhibition test of MDM2-P53 (GST-MDM2, Biotin-P53, Anti-GST-Tb, SA-XL665). It counts as binding. The gist of the method: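 Compounds, serially diluted 5-fold (twelve concentrations), were shaken for 90 min at 25° C with a mix of GST-MDM2 (4 nM final), Biotin-P53, anti-GST-Tb and SA-XL665. Buffer: 1×PBS, 0.1% BSA, 5 mM DTT, 1 mM AEBSF; signal read on a microplate reader.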

Structures are written as SMILES.

T1 sequence (Q00987 whole entry): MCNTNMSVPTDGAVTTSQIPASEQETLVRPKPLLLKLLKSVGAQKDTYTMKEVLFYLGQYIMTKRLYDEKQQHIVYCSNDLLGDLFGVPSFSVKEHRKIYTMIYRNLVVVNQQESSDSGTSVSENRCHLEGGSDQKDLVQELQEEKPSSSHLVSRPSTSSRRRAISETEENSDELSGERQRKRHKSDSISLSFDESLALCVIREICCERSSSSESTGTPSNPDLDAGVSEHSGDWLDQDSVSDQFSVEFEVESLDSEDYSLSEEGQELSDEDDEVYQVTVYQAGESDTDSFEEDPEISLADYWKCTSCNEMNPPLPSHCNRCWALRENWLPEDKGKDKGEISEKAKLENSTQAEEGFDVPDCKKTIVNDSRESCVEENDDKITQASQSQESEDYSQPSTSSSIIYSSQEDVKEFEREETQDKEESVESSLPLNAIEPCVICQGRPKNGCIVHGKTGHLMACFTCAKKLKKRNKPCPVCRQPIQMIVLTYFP

Turning to `COc1nc(C(C)C)ncc1-c1nc2c(n1C(C)C)[C@@]1(C(=O)Nc3cc(Cl)ccc31)N(c1cc(Cl)ccc1C)C2=O` [Example S-172, (S)-6-chloro-5′-(5-chloro-2-methylphenyl)-3′-isopropyl-2′-(2-isopropyl-4-methoxypyrimidin-5-yl)-3′H-spiro[dihydroindole-3,4′-pyrrolo[3,4-d]imidazole]-2,6′(5′H)-dione], the IC50 is 53.3 nM in experiment [1] and 0.00415 µM on MDM2.

For `COc1cc(OCCF)ncc1-c1nc2c(n1C(C)C)[C@@]1(C(=O)Nc3cc(Cl)ccc31)N(c1cc(Cl)cnc1C)C2=O` [Example S-173, (S)-6-chloro-5′-(5-chloro-2-methylpyridin-3-yl)-2′-(6-(2-fluoroethoxy)-4-methoxypyridin-3-yl)-3′-isopropyl-3′H-spiro[dihydroindole-3,4′-pyrrolo[3,4-d]imidazole]-2,6′(5′H)-dione], the IC50 in experiment [1] amounted to 217 nM; against MDM2 it was 0.00139 µM.

As for `COc1nc(C2CC2)ncc1-c1nc2c(n1C(C)C)[C@@]1(C(=O)Nc3cc(Cl)ccc31)N(c1cc(F)cc(Cl)c1)C2=O` [Example S-174, (S)-6-chloro-5′-(3-chloro-5-fluorophenyl)-2′-(2-cyclopropyl-4-methoxypyrimidin-5-yl)-3′-isopropyl-3′H-spiro[dihydroindole-3,4′-pyrrolo[3,4-d]imidazole]-2,6′(5′H)-dione], the IC50 in experiment [1] stood at 93.5 nM; at MDM2 it was 0.00412 µM.

As for `COc1cc(OC)c(-c2nc3c(n2C(C)C)[C@@]2(C(=O)Nc4cc(Cl)ccc42)N(c2cc(F)cc(Cl)c2)C3=O)cn1` [Example S-175, (S)-6-chloro-5′-(3-chloro-5-fluorophenyl)-2′-(4,6-dimethoxypyridin-3-yl)-3′-isopropyl-3′H-spiro[dihydroindole-3,4′-pyrrolo[3,4-d]imidazole]-2,6′(5′H)-dione], the IC50 was 49.2 nM in experiment [1] and 0.00196 µM against MDM2.

For the compound `COc1cc(C2CC2)ncc1-c1nc2c(n1C(C)C)[C@@]1(C(=O)Nc3cc(Cl)ccc31)N(c1cc(F)cc(Cl)c1)C2=O` [Example S-176, (S)-6-chloro-5′-(3-chloro-5-fluorophenyl)-2′-(6-cyclopropyl-4-methoxypyridin-3-yl)-3′-isopropyl-3′H-spiro[dihydroindole-3,4′-pyrrolo[3,4-d]imidazole]-2,6′(5′H)-dione], the IC50 came to 28.8 nM in experiment [1] and 0.00176 µM against MDM2.

In the case of `COc1cc(OCCF)ncc1-c1nc2c(n1C(C)C)[C@@]1(C(=O)Nc3cc(Cl)ccc31)N(c1cccc(Cl)c1)C2=O` [Example S-177, (S)-6-chloro-5′-(3-chlorophenyl)-2′-(6-(2-fluoroethoxy)-4-methoxypyridin-3-yl)-3′-isopropyl-3′H-spiro[dihydroindole-3,4′-pyrrolo[3,4-d]imidazole]-2,6′(5′H)-dione], the IC50 is 421 nM in experiment [1] and 0.00237 µM on MDM2.

As for `CCOc1ncc(-c2nc3c(n2C(C)C)[C@@]2(C(=O)Nc4cc(Cl)ccc42)N(c2cc(F)cc(Cl)c2)C3=O)c(OC)n1` [Example S-180, (S)-6-chloro-5′-(3-chloro-5-fluorophenyl)-2′-(2-ethoxy-4-methoxypyrimidin-5-yl)-3′-isopropyl-3′H-spiro[dihydroindole-3,4′-pyrrolo[3,4-d]imidazole]-2,6′(5′H)-dione], the IC50 in experiment [1] stood at 56.8 nM; against MDM2, 0.0046 µM.
